Experiments:
Format in all cases: in vivo
[1] = test system: common cutworm (Spodoptera Litura); assay: Insecticidal effect on common cutworm (Test Example 2); settings: 500 ppm, 25° C.; for Insecticidal effect (Test Example 2), judged from mortality / Insecticidal effect on common cutworm (Test Example 2), judged grade: cabbage leaf dip; for Insecticidal effect (Test Example 2), judged from mortality: 8 days after inoculation; for Insecticidal effect, Test Example 2: cabbage leaf immersed; for Insecticidal effect, Test Example 2 / Insecticidal effect on common cutworm (Test Example 2), judged grade: eight days after inoculation; for Insecticidal effect on common cutworm (Test Example 2), judged grade: second-instar larvae
How it was run: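 2nd-instar larvae on air-dried treatment, closed dish, 25° C; dead/alive counted at day 8. Mortality calculated, graded by criterion. 3 × 10 insects.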

[2] = test system: rice leafroller (Cnaphalocrocis medinalis); assay: Insecticidal effect on rice leafroller (Test Example 3); settings: 500 ppm, 25° C., humidity 70%; for Insecticidal effect (Test Example 3), judged from mortality / Insecticidal effect on rice leafroller (Test Example 3), judged grade: rice lamina dip; for Insecticidal effect (Test Example 3), judged from mortality: 4 days after inoculation; for Insecticidal effect, Test Example 3: rice lamina immersed; for Insecticidal effect, Test Example 3 / Insecticidal effect on rice leafroller (Test Example 3), judged grade: four days after inoculation; for Insecticidal effect on rice leafroller (Test Example 3), judged grade: third-instar larvae
How it was run: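 Insecticidal effect is judged by a predefined criterion from dead/alive counts four days after infesting air-dried lamina with third-instar larvae, kept on moistened filter paper at 25° C, 70% humidity.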

[3] = test system: diamondback moth (Plutella xylostella); assay: Insecticidal effect on diamondback moth (Test Example 1); settings: for Insecticidal effect (Test Example 1), judged from mortality / Insecticidal effect, Test Example 1: diamondback moth; for Insecticidal effect (Test Example 1), judged from mortality: judged by the criterion of Test Example 1; for Insecticidal effect on diamondback moth (Test Example 1), judged grade: mortality judged according to the criterion shown in Test Example 1
How it was run: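 Triplicate groups of 10 insects: eggs laid on Chinese cabbage seedling by adults, seedling immersed then air-dried, kept at 25° C. Day-6 hatch counts gave mortality, rated by criterion.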

[4] = second-instar larvae of common cutworm
[5] = third-instar larvae of rice leafroller
[6] = common cutworm second-instar larvae
[7] = rice leafroller third-instar larvae
[8] = mortality judged by criterion of Test Example 1
[9] = judged by the mortality criterion of Test Example 1

For `CCC(C)NC(=O)c1c(Cl)cccc1C(=O)Nc1ccc(C(F)(F)C(F)(F)C(F)(F)F)cc1F` (stereo not drawn) [compound 1500], the “Insecticidal effect (Test Example 2), judged from mortality” value [1, 4] was “A (100)”, the “Insecticidal effect (Test Example 3), judged from mortality” value [2, 5] was “A (100)” and the “Insecticidal effect (Test Example 1), judged from mortality” value [3] was “A (100)”.

With `COc1cc(C(F)(F)C(F)(F)F)ccc1NC(=O)c1cccc(I)c1C(=O)NC(C)C` [compound 1388] the “Insecticidal effect, Test Example 2” value [1, 6] was “D (79-50)”, the “Insecticidal effect, Test Example 3” value [2, 7] was “A (100)” and the “Insecticidal effect, Test Example 1” value [3, 8] was “A (100)”.

In the case of `Cc1cc(C(F)(F)C(F)(F)C(F)(F)F)ccc1NC(=O)c1cccc(Br)c1C(=O)NC(C)C` [compound 279], the “Insecticidal effect, Test Example 2” value [1, 4] is reported as “A (100)”, the “Insecticidal effect, Test Example 3” value [2, 5] is reported as “A (100)” and the “Insecticidal effect, Test Example 1” value [3, 9] is reported as “A (100)”.

`CC(C)NC(=O)c1ccccc1C(=O)Nc1ccc(OC(F)(F)F)cc1Cl` [compound 47] was tested, and the “Insecticidal effect, Test Example 2” value [1, 4] was “D (79-50)”, the “Insecticidal effect, Test Example 3” value [2, 5] was “A (100)” and the “Insecticidal effect, Test Example 1” value [3, 9] was “A (100)”.

For `CCCCNC(=O)c1c(I)cccc1C(=O)Nc1ccc(C(F)(F)C(F)(F)F)cc1C` [compound 945], the “Insecticidal effect, Test Example 2” value [1, 6] was “A (100)”, the “Insecticidal effect, Test Example 3” value [2, 7] was “A (100)” and the “Insecticidal effect, Test Example 1” value [3, 8] was “A (100)”.

For `CC(C)NC(=O)c1c(C(=O)Nc2ccc3c(c2)OC(F)C(F)(F)O3)cccc1[N+](=O)[O-]` (stereo not drawn) [compound 1146], the “Insecticidal effect, Test Example 2” value [1, 6] was “C (89-80)”, the “Insecticidal effect, Test Example 3” value [2, 7] was “A (100)” and the “Insecticidal effect, Test Example 1” value [3, 8] was “A (100)”.

For `COCC(C)NC(=O)c1c(I)cccc1C(=O)Nc1ccc(C(F)(F)C(F)(F)F)cc1C` (stereo not drawn) [compound 1031], the “Insecticidal effect, Test Example 2” value [1, 6] was “A (100)”, the “Insecticidal effect, Test Example 3” value [2, 7] was “A (100)” and the “Insecticidal effect, Test Example 1” value [3, 8] was “A (100)”.

`CCCN(C)C(=O)c1c(I)cccc1C(=O)Nc1ccc(C(F)(F)C(F)(F)F)cc1C` [compound 1069] was tested, and the “Insecticidal effect, Test Example 2” value [1, 6] was “A (100)”, the “Insecticidal effect, Test Example 3” value [2, 7] was “A (100)” and the “Insecticidal effect, Test Example 1” value [3, 8] was “A (100)”.

With `Cc1cc(C(F)(F)C(F)(F)F)ccc1NC(=O)c1cccc(C(F)(F)F)c1C(=O)NC(C)C` [compound 1801] the “Insecticidal effect (Test Example 2), judged from mortality” value [1, 4] was “A (100)”, the “Insecticidal effect (Test Example 3), judged from mortality” value [2, 5] was “A (100)” and the “Insecticidal effect (Test Example 1), judged from mortality” value [3] was “A (100)”.

In the case of `CC(C)NC(=O)c1c(I)cccc1C(=O)Nc1ccc(SC(F)(F)C(F)F)cc1` [compound 356], the “Insecticidal effect, Test Example 2” value [1, 4] is reported as “A (100)”, the “Insecticidal effect, Test Example 3” value [2, 5] is reported as “A (100)” and the “Insecticidal effect, Test Example 1” value [3, 9] is reported as “A (100)”.

For `CCC(C)NC(=O)c1c(C(=O)Nc2cc(Cl)ccc2C)cccc1[N+](=O)[O-]` (stereo not drawn) [compound 838], the “Insecticidal effect on common cutworm (Test Example 2), judged grade” value [1] was “C (89-80)”, the “Insecticidal effect on rice leafroller (Test Example 3), judged grade” value [2] was “A (100)” and the “Insecticidal effect on diamondback moth (Test Example 1), judged grade” value [3] was “A (100)”.

In the case of `CC(C)(C)NC(=O)c1c(Cl)cccc1C(=O)Nc1ccc(C(F)(F)C(F)(F)F)cc1Cl` [compound 1449], the “Insecticidal effect (Test Example 2), judged from mortality” value [1, 4] is reported as “A (100)”, the “Insecticidal effect (Test Example 3), judged from mortality” value [2, 5] is reported as “A (100)” and the “Insecticidal effect (Test Example 1), judged from mortality” value [3] is reported as “A (100)”.

`Cc1cc(SC(F)(F)C(F)(F)C(F)(F)F)ccc1NC(=O)c1cccc(I)c1C(=O)NC(C)C` [compound 403] was tested, and the “Insecticidal effect, Test Example 2” value [1, 4] was “B (99-90)”, the “Insecticidal effect, Test Example 3” value [2, 5] was “A (100)” and the “Insecticidal effect, Test Example 1” value [3, 9] was “A (100)”.

In the case of `CCC(CC)NC(=O)c1c(I)cccc1C(=O)Nc1ccc(C(F)(F)C(F)(F)F)cc1C` [compound 1011], the “Insecticidal effect, Test Example 2” value [1, 6] is reported as “A (100)”, the “Insecticidal effect, Test Example 3” value [2, 7] is reported as “A (100)” and the “Insecticidal effect, Test Example 1” value [3, 8] is reported as “A (100)”.

For `CC(C)NC(=O)c1cccc(F)c1C(=O)Nc1ccc(OC(F)F)cc1C(F)(F)F` [compound 579], the “Insecticidal effect on common cutworm (Test Example 2), judged grade” value [1] was “A (100)”, the “Insecticidal effect on rice leafroller (Test Example 3), judged grade” value [2] was “A (100)” and the “Insecticidal effect on diamondback moth (Test Example 1), judged grade” value [3] was “A (100)”.

In the case of `Cc1cc(I)ccc1NC(=O)c1cccc(I)c1C(=O)NC(C)C` [compound 367], the “Insecticidal effect, Test Example 2” value [1, 4] is reported as “A (100)”, the “Insecticidal effect, Test Example 3” value [2, 5] is reported as “A (100)” and the “Insecticidal effect, Test Example 1” value [3, 9] is reported as “A (100)”.

With `CCC(CO)NC(=O)c1ccccc1C(=O)Nc1ccc(C(F)(F)C(F)(F)F)cc1C` (stereo not drawn) [compound 1299] the “Insecticidal effect, Test Example 2” value [1, 6] was “A (100)”, the “Insecticidal effect, Test Example 3” value [2, 7] was “A (100)” and the “Insecticidal effect, Test Example 1” value [3, 8] was “A (100)”.

With `Cc1cc(C(F)(F)C(F)(F)F)ccc1NC(=O)c1cccc(I)c1C(=O)N1CCCCCC1` [compound 1117] the “Insecticidal effect, Test Example 2” value [1, 6] was “A (100)”, the “Insecticidal effect, Test Example 3” value [2, 7] was “A (100)” and the “Insecticidal effect, Test Example 1” value [3, 8] was “A (100)”.

From patent US6362369B1, “Phthalic acid diamide derivatives fluorine-containing aniline compounds as starting material, agricultural and horticultural insecticides, and a method for application of the insecticides” (Nihon Nohyaku Co., Ltd., priority 1997, dated 2002)
